Key:
THP-1 cells = test: DQ-OVA uptake in human monocyte cell line, confocal microscopy and flow cytometry; type: cell-based; conditions: DQ-OVA 10 μg/ml, R-DOTAP 25 μg/ml, 1 h at 37° C.
Protocol: To determine the effect of cationic lipids on human cells, a human monocyte cell line, THP-1 was used to assess DQ-OVA uptake ex-vivo. THP-1 is representative of human blood derived monocyte cells, the same cells that are used to produce DC from patients in ex vivo DC therapy approaches. THP-1 cells were incubated with DQ-OVA (10 μg/ml) in the presence (A, B) or absence (C, D) of R-DOTAP (25 μg/ml) for 1 h at 37° C. The same cell was imaged using a laser scanning confocal microscope and quantitated by measuring green versus red fluorescence by flow cytometry. […] Another striking observation from FIGS. 6A and B, is the accumulation of processed OVA in endocytic vesicles. It is well known that proteins in endocytic vesicles are efficiently incorporated into MHC class II molecules for stimulating CD4 T cells or shuttled into the cross-presentation pathway for presentation on MHC class I to CD8 T cells. Thus, cationic lipids facilitate protein uptake in a manner which maximally optimizes presentation of antigen onto both MHC class I and class II molecules, resulting in maximal stimulation of CD8 and CD4 T cells respectively.

[1] = system: mouse bone marrow derived dendritic cells (BMDCs); test: Alexa Fluor 647-OVA uptake by BMDCs, flow cytometry; type: cell-based; conditions: 50 μM cationic lipid, 20 μg/ml Alexa Fluor 647-OVA, 37° C., 10-60 minutes, versus 280 mM sucrose diluent
Protocol: In order to determine the effect of cationic lipids on the uptake of protein antigen, mouse bone marrow derived dendritic cells (BMDCs) were pulsed with Alexa Fluor®647-OVA conjugate and quantified ovalbumin uptake by BMDCs using flow cytometry. Briefly, 2×10^6 cells/ml BMDCs were incubated at 37° C. for 10-60 minutes in serum free RPMI 1640 cell culture media containing 20 μg/ml ovalbumin (Ovalbumin Alexa Fluor® 647 conjugate; life technologies, cat #034784) and 50 μM cationic lipid (RDOTAP) or 280 mM sucrose diluent. Cells were washed after pulsing to remove non-cell associated ovalbumin and fixed with 1% formaldehyde for flow cytometer analysis. The ovalbumin uptake was quantified using BD LSR II flow cytometer.

[2] = system: BMDC (CD11c positive cells); test: DQ-OVA uptake and processing by BMDC, flow cytometry; type: cell-based, mouse
Protocol: In order to determine the effects of cationic lipids on antigen uptake and processing by dendritic cells ex-vivo, a fluorescent ovalbumin protein called DQ-OVA was used. DQ-OVA is non-fluorescent when intact, but emits both red and green fluorescence when the protein is degraded. BMDC were incubated at 37° C. or 4° C. for 1 hr with DQ-OVA alone, or DQ-OVA mixed with different concentrations of the cationic lipid DOTAP. The cells were then washed, fixed, and stained with fluorescent antibodies to CD11c, a marker for dendritic cells. Cells were then analyzed on an LSRII flow cytometer in both red and green fluorescent channels.
This represents the well-known mannose receptor mediated uptake of OVA by DC. […] Graphical representation of the fluorescent uptake of DQ-OVA into BMDC measured by flow cytometry.
This uptake and processing was inhibited at 4° C. confirming that active cytoskeletal rearrangements are required for this type of uptake. […] The effect of R-DOTAP was concentration dependent with 50 uM showing the greatest effect. To determine if the R-DOTAP enhancement of protein uptake is cell dependent, a mouse epithelial cell line was incubated with DQ-OVA under identical conditions as the BMDC. […] Further, they indicate that this enhancement is selective for dendritic cells and not other, non-antigen presenting cell types.
In order to determine whether lipid adjuvants could mediate the same effect as R-DOTAP, BMDC were incubated with DQ-OVA in media alone or with R-DOTAP as described for FIG. 1. In addition, BMDC were incubated under identical conditions with the potent lipid adjuvant lipopolysaccharide (LPS). Mouse bone marrow DC were incubated in the presence of fluorescent DQ-OVA for one hour at either 37° C. or 4° C./azide in the presence of 25 μM DOTAP nanoparticles, 10 μg/ml LPS or media alone, and analyzed by flow cytometry. […] Monophorphoryl lipid-A (MPL) is a lower toxicity derivative of LPS that is now an FDA approved adjuvant in several vaccines.

## CCCCCCCC/C=C\CCCCCCCC(=O)OCC(C[N+](C)(C)C)OC(=O)CCCCCCC/C=C\CCCCCCCC (stereo not drawn) [R-DOTAP, 1,2-dioleoyl-3-trimethylammonium propane]
THP-1 cells
  DQ-OVA uptake in THP-1 cells: dramatically enhanced the uptake of DQ-OVA in THP-1 cells
[1]
  ovalbumin (protein) uptake by BMDC, fluorescence intensity: significantly increased the protein uptake by BMDC at all time points measured
[2]; 4° C., 1 hr
  DQ-OVA uptake at 4° C.: Significant uptake was even seen at 4 °C
[2]; 37° C., 1 hr, versus DQ-OVA alone
  DQ-OVA uptake and processing, mean green fluorescence of CD11c positive cells: doubling of fluorescence
[2]; concentration dependent effect
  concentration showing the greatest effect on DQ-OVA uptake: 50 µM
[2]; one hour, 25 μM DOTAP nanoparticles, 10 μg/ml LPS or media alone
  enhancement of DQ-OVA uptake and processing compared with known adjuvants (red fluorescence): greatly enhanced

From patent publication US11612652B2, “Lipids as synthetic vectors to enhance antigen processing and presentation ex-vivo in dendritic cell therapy” (PDS Biotechnology Corporation, priority 2015, dated 2023)
